In paper PMC5547389, “Structure-activity relationships and molecular docking studies of chromene and chromene based azo chromophores: A novel series of potent antimicrobial and anticancer agents” (EXCLI Journal, 2017):
≈ marks a conversion by molar mass, not a printed value. Where two headings read alike, the source gives them in different places.

Legend:
[1] = test system: Aspergillus fumigatus (RCMB 02568); assay: Well diffusion assay (inhibition zone); assay type: cell-based
Description: (§1) The microorganism inoculums were uniformly spread using sterile cotton swabs on a sterile Petri dish malt extract agar (for fungi) and nutrient agar (for bacteria). One hundred cubic millimeters of each sample was added to each well (10 mm-diameter holes were cut in the agar gel, 20 mm apart from one another). The systems were incubated for 24-48 h at 37 °C (for bacteria) and at 28 °C (for fungi). After incubation, the microorganism growth was observed. Inhibition zones of the bacterial and fungal growth were measured in millimeters. Tests were performed in triplicate (Cappuccino and Sherman, 1999[12]; Vanden Berghe and Vlientinck, 1991[62]).
(§2) All the newly synthesized compounds described in this report were screened for both antibacterial and antifungal activity via the reported agar diffusion well method (Vanden Berghe and Vlietinck, 1991[62]). The inhibition zones and minimum inhibitory concentrations (MIC) were determined by the serial dilution method (Cappuccino and Sherman, 1999[12]). The antimicrobial activity of the synthesized compounds was tested against a broad panel of microorganisms including two Gram-positive bacteria: Streptococcus pneumoniae (RCMB 010010) and Bacillus subtilis (RCMB 010067), two Gram-negative bacteria: Pseudomonas aeruginosa (RCMB 010043) and Escherichia coli (RCMB 010052), and four fungi: Aspergillus fumigatus (RCMB 02568), Syncephalastrum racemosum (RCMB 05922), Geotricum candidum (RCMB 05097), and Candida albicans (RCMB 05036). Ampicillin, ciprofloxacin, gentamicin and amphotericin B were used as positive control drugs (Atta-ur-Rahman and Thomsen, 2001[7]; Smania et al., 1999[57]). […] While in the case of Gm-ve bacteria, they had weak activity. In addition, certain strains of fungi were sensitive to tested compounds with an IZ range from 12-25 except Candida albicans.

[2] = test system: Bacillus subtilis (RCMB 010067); assay: Well diffusion assay (inhibition zone); assay type: cell-based
Description: as §1, §2

[3] = test system: Escherichia coli (RCMB 010052); assay: Well diffusion assay (inhibition zone); assay type: cell-based
Description: as §1, §2

[4] = test system: Geotricum candidum (RCMB 05097); assay: Well diffusion assay (inhibition zone); assay type: cell-based; settings: read-out: Inhibition Zone (IZ) diameter, G.C
Description: as §1, §2

[5] = test system: Pseudomonas aeruginosa (RCMB 010043); assay: Well diffusion assay (inhibition zone); assay type: cell-based; settings: RCMB010043, 5 mg/mL in DMSO, Gm-ve, read-out: Inhibition Zone (IZ) diameter, P.A
Description: as §1, §2

[6] = test system: Streptococcus pneumoniae (RCMB 010010); assay: Well diffusion assay (inhibition zone); assay type: cell-based
Description: as §1, §2

[7] = test system: Syncephalastrum racemosum (RCMB 05922); assay: Well diffusion assay (inhibition zone); assay type: cell-based
Description: as §1, §2

[8] = test system: Aspergillus fumigatus (RCMB 02568); assay: MIC by serial dilution method; assay type: cell-based
Description: as §2

[9] = test system: Bacillus subtilis (RCMB 010067); assay: MIC by serial dilution method; assay type: cell-based
Description: as §2

[10] = test system: Escherichia coli (RCMB 010052); assay: MIC by serial dilution method; assay type: cell-based
Description: as §2

[11] = test system: Geotricum candidum (RCMB 05097); assay: MIC by serial dilution method; assay type: cell-based; settings: read-out: Minimum inhibitory concentration, MIC, G.C
Description: as §2

[12] = test system: Pseudomonas aeruginosa (RCMB 010043); assay: MIC by serial dilution method; assay type: cell-based; settings: RCMB010043, Gm-ve, read-out: Minimum inhibitory concentration, MIC, P.A
Description: as §2

[13] = test system: Streptococcus pneumoniae (RCMB 010010); assay: MIC by serial dilution method; assay type: cell-based
Description: as §2

[14] = test system: Syncephalastrum racemosum (RCMB 05922); assay: MIC by serial dilution method; assay type: cell-based
Description: as §2

[15] = test system: Human colon carcinoma (HCT-116); assay: Cytotoxic screening; assay type: cell-based
Description: (§3) Human colon carcinoma (HCT-116), human hepatocellular carcinoma (HEPG-2), adenocarcinomic human alveolar basal epithelial cell (A-549), and human breast adenocarcinoma (MCF-7) cell lines were obtained from the American Type Culture Collection (ATCC, Rockville, MD). The cells were grown on RPMI-1640 medium supplemented with 10 % inactivated fetal calf serum and 50 µg/ml gentamycin. The cells were maintained at 37 °C in a humidified atmosphere with 5 % CO2 and were subcultured two to three times a week. Potential cytotoxicity of the compounds was evaluated on tumor cells using the method of Gangadevi and Muthumary (2007[21]) (Klancnik et al., 2010[36]). The cells were grown as monolayers in growth RPMI-1640. The monolayers of 104 cells adhered at the bottom of the wells in a 96-well microtiter plate incubated for 24 h at 37 °C in a humidified incubator with 5 % CO2. The monolayers were then washed with sterile phosphate buffered saline (0.01 M pH 7.2) and simultaneously the cells were treated with 100 µL from different dilutions of tested sample in fresh maintenance medium and incubated at 37 °C. A control of untreated cells was made in the absence of tested sample. Positive controls containing doxorubicin were also tested as a reference drug for comparison. Six wells were used for each concentration of the test sample. Every 24 hours an observation under the inverted microscope was made. The number of the surviving cells was determined by staining the cells with crystal violet (Mosmann, 1983[42]; Gangadevi and Muthumary, 2007[21]) followed by cell lysing using 33 % glacial acetic acid and reading the absorbance at 590 nm using microplate reader (SunRise, TECAN, Inc, USA) after well mixing. The absorbance values from untreated cells were considered as 100 % proliferation. The number of viable cells was determined using microplate reader as previously mentioned before and the percentage of […] was calculated as [1-(ODt/ODc)] x 100 % where ODt is the mean optical density of wells treated with the tested sample and ODc is the mean optical density of untreated cells. The relation between surviving cells and drug concentration was plotted to get the survival curve of each tumor cell line after treatment with the specified compound. The 50 % inhibitory concentration (IC50), the concentration required to cause toxic effects in 50 % of intact cells, was estimated from graphic plots.
(§4) The in vitro cytotoxic activity was performed by MTT assay (Mosmann, 1983[42]; Alley et al., 1988[6]) against three human carcinoma cell lines: Human colon carcinoma (HCT-116), human breast adenocarcinoma (MCF-7), and human hepatocellular carcinoma (HEPG-2).

[16] = test system: human breast adenocarcinoma (MCF-7); assay: Cytotoxic screening; assay type: cell-based
Description: as §3, §4

[17] = test system: human hepatocellular carcinoma (HEPG-2); assay: Cytotoxic screening; assay type: cell-based; settings: HepG2, read-out: IC50 HepG-2
Description: as §3, §4

[18] = test system: HCT-116, MCF-7, HEPG-2; assay: Cytotoxic screening, statements over the three cell lines; assay type: cell-based; settings: Homo sapiens, read-out: IC50, range over the three cell lines
Description: as §3, §4

[19] = RCMB02568, 5 mg/mL in DMSO, fungi, read-out: Inhibition Zone (IZ) diameter, A.F
[20] = RCMB010067, 5 mg/mL in DMSO, Gm+ve, read-out: Inhibition Zone (IZ) diameter, B.S
[21] = RCMB010052, 5 mg/mL in DMSO, Gm-ve, read-out: Inhibition Zone (IZ) diameter, E.C
[22] = RCMB010010, 5 mg/mL in DMSO, Gm+ve, read-out: Inhibition Zone (IZ) diameter, S.P
[23] = RCMB05922, 5 mg/mL in DMSO, fungi, read-out: Inhibition Zone (IZ) diameter, S.R
[24] = RCMB02568, fungi, read-out: Minimum inhibitory concentration, MIC, A.F
[25] = RCMB010067, Gm+ve, read-out: Minimum inhibitory concentration, MIC, B.S
[26] = RCMB010052, Gm-ve, read-out: Minimum inhibitory concentration, MIC, E.C
[27] = RCMB010010, Gm+ve, read-out: Minimum inhibitory concentration, MIC, S.P
[28] = RCMB05922, fungi, read-out: Minimum inhibitory concentration, MIC, S.R
[29] = Homo sapiens, HCT-116; read-out: IC50 HCT-116
[30] = Homo sapiens, MCF7; read-out: IC50 MCF-7

| Compound | zone of inhibition at 5000 µg/mL [1, 19] [mm] | zone of inhibition at 5000 µg/mL [2, 20] [mm] | zone of inhibition at 5000 µg/mL [3, 21] [mm] | zone of inhibition at 5000 µg/mL ([4]; 5 mg/mL in DMSO, fungi) [mm] | zone of inhibition at 5000 µg/mL [5] [mm] | zone of inhibition at 5000 µg/mL [6, 22] [mm] | zone of inhibition at 5000 µg/mL [7, 23] [mm] | MIC [8, 24] [µg/mL] | MIC [9, 25] [µg/mL] | MIC [10, 26] [µg/mL] | MIC ([11]; fungi) [µg/mL] | MIC [12] [µg/mL] | MIC [13, 27] [µg/mL] | MIC [14, 28] [µg/mL] | IC50 [15, 29] [µg/mL] | IC50 [16, 30] [µg/mL] | IC50 [17] [µg/mL] | melting point [°C] | further results |
| --- | --- | --- | --- | --- | --- | --- | --- | --- | --- | --- | --- | --- | --- | --- | --- | --- | --- | --- | --- |
| CC(C)(C)c1ccc(C2C(C#N)=C(N)Oc3cc(O)c(N=Nc4ccc(O)cc4)cc32)cc1 (centres unmarked) [13i, 2-Amino-4-(4-tert-butyl-phenyl)-7-hydroxy-6-(4-hydroxy-phenylazo)-4H-chromene-3-carbonitrile] | 17.3 | 22.4 | 17.2 | 20.3 | 16.2 | 21.3 | 19.2 | 3.9 (≈ 8.85 µM) | 0.12 (≈ 0.272 µM) | 3.9 (≈ 8.85 µM) | 0.98 (≈ 2.22 µM) | 15.6 (≈ 35.5 µM) | 0.24 (≈ 0.545 µM) | 15.6 (≈ 35.5 µM) | 75.7 (≈ 172 µM) | 47 (≈ 107 µM) | 31.6 (≈ 71.7 µM) | 255 | – |
| N#CC1=C(N)Oc2cc(O)c(N=Nc3ccc(O)cc3)cc2C1c1ccccc1F (centres unmarked) [13j, 2-Amino-4-(2-fluoro-phenyl)-7-hydroxy-6-(4-hydroxy-phenylazo)-4H-chromene-3-carbonitrile] | 20.6 | 21.9 | 19.8 | 21.2 | 16.3 | 21 | 18.7 | 0.98 (≈ 2.44 µM) | 0.49 (≈ 1.22 µM) | 3.9 (≈ 9.69 µM) | 0.98 (≈ 2.44 µM) | 31.2 (≈ 77.7 µM) | 0.98 (≈ 2.44 µM) | 3.9 (≈ 9.69 µM) | 49.1 (≈ 122 µM) | 44 (≈ 109 µM) | 47.2 (≈ 117 µM) | 260 | – |
| N#CC1=C(N)Oc2cc(O)c(N=Nc3cccc(O)c3)cc2C1c1ccccc1F (centres unmarked) [13k, 2-Amino-4-(2-fluoro-phenyl)-7-hydroxy-6-(3-hydroxy-phenylazo)-4H-chromene-3-carbonitrile] | 19.4 | 24.3 | 18.6 | 21.3 | 17.1 | 22.6 | 17.1 | 15.6 (≈ 38.8 µM) | 0.49 (≈ 1.22 µM) | 15.6 (≈ 38.8 µM) | 1.95 (≈ 4.85 µM) | 31.2 (≈ 77.7 µM) | 0.98 (≈ 2.44 µM) | 3.9 (≈ 9.69 µM) | 71.4 (≈ 177 µM) | 44.1 (≈ 110 µM) | 41.8 (≈ 104 µM) | 280 | – |
| Nc1cc2ccccc2cc1O [compound 1, 3-amino-2-naphthol] | – | – | – | – | – | – | – | – | – | – | – | – | – | – | – | – | 60.5 (≈ 380 µM) | – | zone of inhibition at 5000 µg/mL ([1]; RCMB02568, read-out: Inhibition Zone (IZ) diameter, A.F): 16.6 mm; zone of inhibition at 5000 µg/mL ([2]; RCMB010067, read-out: Inhibition Zone (IZ) diameter, B.S): 17.8 mm; zone of inhibition at 5000 µg/mL ([3]; RCMB010052, read-out: Inhibition Zone (IZ) diameter, E.C): 15.5 mm; zone of inhibition at 5000 µg/mL [4]: 19.2 mm; zone of inhibition at 5000 µg/mL ([6]; RCMB010010, read-out: Inhibition Zone (IZ) diameter, S.P): 15.9 mm; zone of inhibition at 5000 µg/mL ([7]; RCMB05922, read-out: Inhibition Zone (IZ) diameter, S.R): 14.3 mm; MIC ([8]; RCMB02568, read-out: Minimum inhibitory concentration, MIC, A.F): 15.6 µg/mL (≈ 98.2 µM); MIC ([9]; RCMB010067, read-out: Minimum inhibitory concentration, MIC, B.S): 31.2 µg/mL (≈ 196 µM); MIC ([10]; RCMB010052, read-out: Minimum inhibitory concentration, MIC, E.C): 7.8 µg/mL (≈ 49 µM); MIC [11]: 62.5 µg/mL (≈ 393 µM); MIC ([13]; RCMB010010, read-out: Minimum inhibitory concentration, MIC, S.P): 15.6 µg/mL (≈ 98.1 µM); MIC ([14]; RCMB05922, read-out: Minimum inhibitory concentration, MIC, S.R): 7.81 µg/mL (≈ 49.1 µM); IC50 ([15]; Homo sapiens, HCT-116, read-out: IC50 HCT-116): 218 µg/mL (≈ 1370 µM); IC50 ([16]; Homo sapiens, MCF7, read-out: IC50 MCF-7): 230 µg/mL (≈ 1440 µM); IC50 [18]: 60 to 230 µg/mL (≈ 377 to 1440 µM) |
| Nc1cccc2c(O)cccc12 [compound 5, 5-amino-1-naphthol] | 18.3 | 18.9 | 17.2 | 19.5 | – | 16.3 | 14.5 | – | – | – | – | – | – | – | 11.5 (≈ 72.2 µM) | 8.88 (≈ 55.8 µM) | 15.2 (≈ 95.5 µM) | – | IC50 ([18]; HCT-116, MCF-7, HEPG-2 together): 9 to 15 µg/mL (≈ 56.5 to 94.2 µM) |
